Laboratory results as given in patent US8859580B2 (Boehringer Ingelheim International GmbH, priority 2007, dated 2014).

biological target: T1, 11β-HSD1 (Homo sapiens, UniProt P28845); assay: In vitro inhibition of 11β-HSD1, HTRF detection of cortisol generated from cortisone by human liver microsomes; type: biochemical; settings: 11β-HSD IC50 (nM), 1 hour at 37° C., pH 6.0, NADPH 200 μM, cortisone 80 nM, inhibition relative to carbenoxolone signal
T1 construct: detecting cortisol generated from cortisterone by human liver microsomes; from tissue; host or cells: human liver microsomes
T1 sequence (P28845 whole entry): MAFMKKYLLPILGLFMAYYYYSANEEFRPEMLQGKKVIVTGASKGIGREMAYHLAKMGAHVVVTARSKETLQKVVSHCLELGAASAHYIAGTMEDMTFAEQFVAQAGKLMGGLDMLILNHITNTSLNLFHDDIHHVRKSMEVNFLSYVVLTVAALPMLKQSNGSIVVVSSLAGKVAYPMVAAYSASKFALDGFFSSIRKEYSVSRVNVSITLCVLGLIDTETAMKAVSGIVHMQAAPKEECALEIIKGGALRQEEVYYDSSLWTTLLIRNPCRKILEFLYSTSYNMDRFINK
Outline: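 Inhibition expressed against the carbenoxolone signal and fitted to IC50 curves. Readout: HTRF competition between microsomal cortisol and XL665-labelled cortisol for Eu-cryptate anti-cortisol antibody (typically 2 h), with emission ratio 665/615 calibrated to cortisol concentration.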

SMILES | IC50 [nM]
O=C(c1ccc2nc[nH]c2c1)N1CCC2CC1Cc1ccc(O)cc12 (stereo not drawn) [Example 55, (3H-Benzoimidazol-5-yl)-(8-hydroxy-1,2,5,6-tetrahydro-4H-2,6-methano-benzo[d]azocin-3-yl)-methanone] | 746
C[C@@H]1[C@H]2Cc3ccc(-c4cccnc4)cc3[C@]1(C)CCN2C(=O)c1ccc2nc[nH]c2c1 [Example 250, (3H-Benzoimidazol-5-yl)-[(2R,6R,11S)-6,11-dimethyl-8-pyridin-3-yl-1,2,5,6-tetrahydro-4H-2,6-methano-benzo[d]azocin-3-yl]-methanone] | 53
C[C@@H]1[C@H]2Cc3ccc(-c4cncnc4)cc3[C@]1(C)CCN2C(=O)c1ccc2nc[nH]c2c1 [Example 252, (3H-Benzoimidazol-5-yl)-[(2R,6R,11S)-6,11-dimethyl-8-pyrimidin-5-yl-1,2,5,6-tetrahydro-4H-2,6-methano-benzo[d]azocin-3-yl]-methanone] | 61
CC12CCN(C(=O)c3ccc4[nH]cnc4c3)C(Cc3cccc(-c4cccnc4)c31)C2(C)C (stereo not drawn) [Example 309, (1H-Benzoimidazol-5-yl)-(6,11,11-trimethyl-7-pyridin-3-yl-1,2,5,6-tetrahydro-4H-2,6-methano-benzo[d]azocin-3-yl)-methanone] | 184
Cn1cc(C(=O)N2CC[C@@]3(C)c4ccccc4C[C@@H]2C3(C)C)c2ccccc21 [Example 256, (1-Methyl-1H-indol-3-yl)-[(2R,6S)-6,11,11-trimethyl-1,2,5,6-tetrahydro-4H-2,6-methano-benzo[d]azocin-3-yl]-methanone] | 222
CC1(C)[C@H]2Cc3ccccc3[C@]1(C)CCN2C(=O)c1ccc([N+](=O)[O-])cc1 [Example 280, (4-Nitro-phenyl)-[(2R,6S)-6,11,11-trimethyl-1,2,5,6-tetrahydro-4H-2,6-methano-benzo[d]azocin-3-yl]-methanone] | 1260
CC(O)c1ccc2c(c1)C[C@H]1N(C(=O)c3ccc4nc[nH]c4c3)CC[C@]2(C)C1(C)C (stereo partly drawn) [Example 209, (3H-Benzoimidazol-5-yl)-[(2R,6S)-9-(1-hydroxy-ethyl)-6,11,11-trimethyl-1,2,5,6-tetrahydro-4H-2,6-methano-benzo[d]azocin-3-yl]-methanone] | 40
CC12CCN(C(=O)c3ccc4nc[nH]c4c3)C(Cc3ccc(O)cc31)C2 (stereo not drawn) [Example 51, (3H-Benzoimidazol-5-yl)-(8-hydroxy-6-methyl-1,2,5,6-tetrahydro-4H-2,6-methano-benzo[d]azocin-3-yl)-methanone] | 629
CC1(C)[C@H]2Cc3c(O)cccc3[C@]1(C)CCN2C(=O)c1csc2ccccc12 [Example 217, Benzo[b]thiophen-3-yl-[(2R,6S)-10-hydroxy-6,11,11-trimethyl-1,2,5,6-tetrahydro-4H-2,6-methano-benzo[d]azocin-3-yl]-methanone] | 410
CC12CCN(C(=O)c3ccc4nc[nH]c4c3)C(Cc3cc(C(=O)O)ccc31)C2(C)C (stereo not drawn) [Example 154, 3-(3H-Benzoimidazole-5-carbonyl)-6,11,11-trimethyl-1,2,3,4,5,6-hexahydro-2,6-methano-benzo[d]azocine-9-carboxylic acid] | 1660
COC(=O)c1ccc(C(=O)N2CC[C@@]3(C)c4cccc(O)c4C[C@@H]2C3(C)C)cc1 [Example 50, 4-[(2R,6S)-10-Hydroxy-6,11,11-trimethyl-1,2,5,6-tetrahydro-4H-2,6-methano-benzo[d]azocine-3-carbonyl]-benzoic acid methyl ester] | 3000
CC1(O)CCc2ccc(C(=O)N3CC[C@@]4(C)c5ccccc5C[C@@H]3C4(C)C)cc21 (stereo partly drawn) [Example 292, (3-Hydroxy-3-methyl-indan-5-yl)-[(2R,6S)-6,11,11-trimethyl-1,2,5,6-tetrahydro-4H-2,6-methano-benzo[d]azocin-3-yl]-methanone] | 502
CC1(C)[C@H]2Cc3c(O)cccc3[C@]1(C)CCN2C(=O)c1ccc2cc[nH]c2c1 [Example 31, [(2R,6S)-10-Hydroxy-6,11,11-trimethyl-1,2,5,6-tetrahydro-4H-2,6-methano-benzo[d]azocin-3-yl]-(1H-indol-6-yl)-methanone] | 88
COc1cc2c(cc1C)C[C@@H]1N(C(=O)c3ccc4nc[nH]c4c3)CC[C@@]2(C)C1(C)C (stereo in doubt) [Example 61, (3H-Benzoimidazol-5-yl)-[(2S,6R)-8-methoxy-6,9,11,11-tetramethyl-1,2,5,6-tetrahydro-4H-2,6-methano-benzo[d]azocin-3-yl]-methanone] | 798
CC12CCN(C(=O)c3ccc4nc[nH]c4c3)C(Cc3cc4c(cc31)OCO4)C2(C)C (stereo not drawn) [Example 143, (8,9-Methylenedioxy-6,11,11-trimethyl-1,2,5,6-tetrahydro-4H-2,6-methano-benzo[d]azocin-3-yl)-(3H-benzoimidazol-5-yl)-methanone] | 123
CC1(C)[C@H]2Cc3ccccc3[C@]1(C)CCN2C(=O)c1ccc2c(c1)CC(=O)N2 [Example 298, 5-[(2R,6S)-6,11,11-Trimethyl-1,2,5,6-tetrahydro-4H-2,6-methano-benzo[d]azocine-3-carbonyl]-1,3-dihydro indol-2-one] | 99
CC1(C)[C@H]2Cc3c(O)cccc3[C@]1(C)CCN2C(=O)c1cccc(C#N)c1 [Example 10, 3-[(2R,6S)-10-Hydroxy-6,11,11-trimethyl-1,2,5,6-tetrahydro-4H-2,6-methano-benzo[d]azocine-3-carbonyl]-benzonitrile] | 1780
CC1(C)C2CCN(C(=O)c3ccc4nc[nH]c4c3)C1Cc1c(O)cccc12 (stereo not drawn) [Example 183, (3H-Benzoimidazol-5-yl)-(10-hydroxy-11,11-dimethyl-1,2,5,6-tetrahydro-4H-2,6-methano-benzo[d]azocin-3-yl)-methanone] | 155
Cc1ccc2c(c1)C1(C)CCN(C(=O)c3ccc4nc[nH]c4c3)C(C2)C1(C)C (stereo not drawn) [Example 69, (3H-Benzoimidazol-5-yl)-(6,8,11,11-tetramethyl-1,2,5,6-tetrahydro-4H-2,6-methano-benzo[d]azocin-3-yl)-methanone] | 105
CN(C(=O)c1ccc(C(=O)N2CC[C@@]3(C)c4cccc(O)c4C[C@@H]2C3(C)C)cc1)c1ccccc1 [Example 208, 4-[(2R,6S)-10-Hydroxy-6,11,11-trimethyl-1,2,5,6-tetrahydro-4H-2,6-methano-benzo[d]azocine-3-carbonyl]-N-methyl-N-phenyl-benzamide] | 238
CC12CCN(C(=O)c3ccc4nc[nH]c4c3)C(Cc3cc(CN)ccc31)C2(C)C (stereo not drawn) [Example 173, (9-Aminomethyl-6,11,11-trimethyl-1,2,5,6-tetrahydro-4H-2,6-methano-benzo[d]azocin-3-yl)-(3H-benzoimidazol-5-yl)-methanone] | 1690
CC1(C)[C@@H]2Cc3ccc(O)cc3[C@@]1(C)CCN2C(=O)c1ccc2nc[nH]c2c1 [Example 79, (3H-Benzoimidazol-5-yl)-[(2S,6R)-8-hydroxy-6,11,11-trimethyl-1,2,5,6-tetrahydro-4H-2,6-methano-benzo[d]azocin-3-yl]-methanone] | 1370
CC1CN(Cc2ccc(C(=O)N3CC[C@@]4(C)c5cccc(O)c5C[C@@H]3C4(C)C)cc2)CC(C)O1 (stereo partly drawn) [Example 184, [4-(2,6-Dimethyl-morpholin-4-ylmethyl)-phenyl]-[(2R,6S)-10-hydroxy-6,11,11-trimethyl-1,2,5,6-tetrahydro-4H-2,6-methano-benzo[d]azocin-3-yl]-methanone] | 1150
CC1(C)[C@H]2Cc3ccccc3[C@]1(C)CCN2C(=O)c1cccc2ccccc12 [Example 284, Naphthalen-1-yl-[(2R,6S)-6,11,11-trimethyl-1,2,5,6-tetrahydro-4H-2,6-methano-benzo[d]azocin-3-yl]-methanone] | 666
CC1(C)[C@H]2Cc3c(O)cccc3[C@]1(C)CCN2C(=O)c1ccncc1 [Example 126, [(2R,6S)-10-Hydroxy-6,11,11-trimethyl-1,2,5,6-tetrahydro-4H-2,6-methano-benzo[d]azocin-3-yl]-pyridin-4-yl-methanone] | 1270
CC1(C)[C@H]2Cc3c(O)cccc3[C@]1(C)CCN2C(=O)c1ccc2nc[nH]c2c1 [Example 4, (3H-Benzoimidazol-5-yl)-[(2R,6S)-10-hydroxy-6,11,11-trimethyl-1,2,5,6-tetrahydro-4H-2,6-methano-benzo[d]azocin-3-yl]-methanone] | 56
CC1(C)[C@H]2Cc3c(O)cccc3[C@]1(C)CCN2C(=O)c1ccc(CN2CCC(O)CC2)cc1 [Example 190, [4-(4-Hydroxy-piperidin-1-ylmethyl)-phenyl]-[(2R,6S)-10-hydroxy-6,11,11-trimethyl-1,2,5,6-tetrahydro-4H-2,6-methano-benzo[d]azocin-3-yl]-methanone] | 1650
CC1(C)[C@H]2Cc3ccccc3[C@]1(C)CCN2C(=O)c1ccc2[nH]ncc2c1 [Example 293, (1H-Indazol-5-yl)-[(2R,6S)-6,11,11-trimethyl-1,2,5,6-tetrahydro-4H-2,6-methano-benzo[d]azocin-3-yl]-methanone] | 27

same assay, conditions: 1 hour at 37° C., pH 6.0, NADPH 200 μM, cortisone 80 nM, inhibition relative to carbenoxolone signal, read-out: 11β-HSD IC50

SMILES | IC50 [nM]
CC12CC(Cc3ccccc31)N(C(=O)c1ccc3nc[nH]c3c1)C2 (stereo not drawn) [Example 323, (3H-Benzoimidazol-5-yl)-(1-methyl-10-aza-tricyclo[7.2.1.0*2,7*]dodeca-2,4,6-trien-10-yl)-methanone] | 620
Cn1cc(C2=NC3=CC4=C(CC3=N2)C[C@H]2N(C(=O)c3ccc5nc[nH]c5c3)CC[C@]4(C)C2(C)C)ccc1=O [Example 272, (3H-Benzoimidazol-5-yl)-[(6R,10S)-5,6,7,8,9,10-hexahydro-10,12,12-trimethyl-2-(1-methyl-6-oxo-1,6-dihydro-pyridin-3-yl)-6,10-methano-imidazo[5,4-i][3]benzazocin-7-yl]-methanone] | 44
